Values after ≈ are worked out from the molar mass of the structure shown.
Columns and labels:
Assay type in all cases: cell-based
[1] = test system: Staphylococcus aureus ATCC25923, erythromycin-susceptible strain; test: MIC, broth microdilution; conditions: Staphylococcus aureus ATCC25923; read-out: MIC S. a. 25923
How it was run: (§1)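 Per CLSI standards, compounds are serially diluted twofold in TSB, inoculated with an equal volume of bacteria at 10^6 CFU/mL and incubated 24 h at 37 °C. Vancomycin served as the positive drug; triplicate experiments.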

[2] = test system: Staphylococcus epidermidis ATCC12228, erythromycin-susceptible strain; test: MIC, broth microdilution; conditions: Staphylococcus epidermidis ATCC12228; read-out: MIC S. e. 12228
How it was run: as §1

[3] = test system: Acinetobacter baumannii ATCC19606; test: MIC, broth microdilution; conditions: Acinetobacter baumannii ATCC19606; read-out: MIC A. b. 19606
How it was run: as §1

[4] = test system: Bacillus subtilis ATCC9372, penicillin-susceptible strain; test: MIC, broth microdilution; conditions: Bacillus subtilis ATCC9372; read-out: MIC B. s. 9372
How it was run: as §1

[5] = test system: Enterococcus faecalis ATCC29212, vancomycin-susceptible strain; test: MIC, broth microdilution; conditions: Enterococcus faecalis ATCC29212; read-out: MIC E. f. 29212
How it was run: as §1

[6] = test system: Escherichia coli ATCC25922, penicillin-susceptible strain; test: MIC, broth microdilution; conditions: Escherichia coli ATCC25922; read-out: MIC E. c. 25922
How it was run: as §1

[7] = test system: Staphylococcus aureus ATCC31007, penicillin-resistant strain; test: MIC, broth microdilution; conditions: Staphylococcus aureus ATCC31007; read-out: MIC S. a. 31007
How it was run: as §1

[8] = test system: Klebsiella pneumonia ATCC10031; test: MIC, broth microdilution; conditions: Klebsiella pneumoniae; Klebsiella pneumonia ATCC10031; read-out: MIC K. p. 10031
How it was run: as §1

[9] = test system: Pseudomonas aeruginosa ATCC27853, penicillin-susceptible strain; test: MIC, broth microdilution; conditions: Pseudomonas aeruginosa ATCC27853; read-out: MIC P. a. 27853
How it was run: as §1

S. aureus ATCC43300 [10] = test: ROS assay (DCFH-DA); conditions: 16 μg/mL
Protocol: It is known that the disruption of bacterial cell membranes often causes the production of ROS in bacterial cells. The fluorescent probe DCFH-DA was used to monitor the level of intracellular ROS produced by S. aureus ATCC43300. DCFH-DA is initially non-fluorescent; however, it undergoes hydrolysis to DCFH upon entry into the cell. Subsequently, DCFH is converted to the fluorescent compound DCF when ROS are produced in the cells. […] The fluorescence intensity of 9h was about 8-fold higher than the PBS-treated group when the concentration of 9h increased 16 μg/mL.
Mid-log S. aureus ATCC43300 was collected and resuspended in PBS. Bacteria suspension (1.0 × 10^8 CFU/mL) was placed into a 96-well plate, and an equal volume of DCF-DA (10.0 μM) was mixed and incubated at 37 °C for 30 min. After incubation, the suspension was centrifuged (3500 rpm, 4 min), and the supernatant was removed and resuspended in PBS. […] The fluorescence intensity of each well was recorded by a microplate reader (Ex = 488 nm and Em = 530 nm). All biological experiments were repeated three times.

[11] = In vitro cytotoxicity evaluation; conditions: human, LO2 cells
Protocol: A key component in the development of antimicrobial agents for clinical application is the assessment of their potential toxicity to mammalian cells. To assess the cytotoxic impact, compound 9h was chosen to undergo in vitro testing for its cytotoxic effects on LO2 cells.

[12] = test system: Enterococcus faecalis ATCC51299, vancomycin-resistant strain; test: MIC, broth microdilution; conditions: Enterococcus faecalis ATCC51299, vancomycin-resistant; read-out: MIC E. f. 51299
How it was run: (§2)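 Broth microdilution per CLSI: 2-fold serial compound dilutions in TSB broth, mixed with an equal volume of bacterial suspension at 10^6 CFU/mL. Incubated 37 °C for 24 h; experiments repeated three times.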

[13] = test system: Enterococcus faecium ATCC51559, vancomycin-resistant strain; test: MIC, broth microdilution; conditions: Enterococcus faecium ATCC51559, vancomycin-resistant; read-out: MIC E. f. 51559
How it was run: as §2

S. aureus ATCC43300 [14] = test: Cell membrane permeabilization, PI uptake assay; conditions: 16 μg/mL, at 20 min
Protocol: The cell membrane permeabilization of compound 9h against S. aureus ATCC43300 was assessed by PI uptake assay. PI could only pass through the impaired cell membrane and had been widely used to evaluate the cell membrane permeability. When the cell membranes were disrupted, PI entered into the cell membrane, leading to a significant improvement in fluorescence intensity. Therefore, the degree of membrane damage could be reflected by observing the fluorescence intensity in S. aureus. […] Compared with the control group, the fluorescence intensity (at 20 min) increased approximately 5-fold after the addition of 9h (16 μg/mL).
Mid-log S. aureus ATCC43300 was collected and then washed with PBS three times. Bacterial suspension (1.0 × 10^8 CFU/mL, 150 μL) was added to a black 96-well plate; following this, fluorescent dye PI (10 μM, 50 μL) was added to each well of plates, and they were preincubated in the dark for 30 min. After the incubation, the fluorescence intensity was detected every minute for 6 min using a microplate reader (λex/λem = 535 nm/615 nm). […] The fluorescence intensity was determined similarly for another 14 min. All biological experiments were repeated three times.

## CC(=O)c1c(OCCCNCCCN2CCN(C)CC2)c2c(c3c1OC(C)(CCC=C(C)C)C=C3)OC(C)(CCC=C(C)C)C=C2 (stereo not drawn) [Compound 9h, 1-(2,8-Dimethyl-2,8-bis(4-methylpent-3-en-1-yl)-5-(3-((3-(4-methylpiperazin-1-yl)propyl)amino)propoxy)-2H,8H-pyrano [2,3-f]chromen-6-yl)ethan-1-one]
[1]
  MIC: 2 µg/mL (≈ 3.15 µM)
[2]
  MIC: 0.5 µg/mL (≈ 0.789 µM)
[3]
  MIC: 4 µg/mL (≈ 6.31 µM)
[4]
  MIC: 2 µg/mL (≈ 3.15 µM)
[5]
  MIC: 1 µg/mL (≈ 1.58 µM)
[6]
  MIC: 4 µg/mL (≈ 6.31 µM)
[7]
  MIC: 2 µg/mL (≈ 3.15 µM)
[8]
  MIC: 8 µg/mL (≈ 12.6 µM)
[9]
  MIC: 16 µg/mL (≈ 25.2 µM)
S. aureus ATCC43300 [10]
  ROS fluorescence intensity vs PBS-treated group: about 8 fold
[11]
  IC50: 55 µg/mL (≈ 86.8 µM)
[11]; 2 μg/mL, read-out: Cell Viability (%)
  viability at 2 μg/mL: 88.8%
[11]; 4 μg/mL, read-out: Cell Viability (%)
  viability at 4 μg/mL: 88.6%
[11]; 8 μg/mL, read-out: Cell Viability (%)
  viability at 8 μg/mL: 82.6%
[11]; 16 μg/mL, read-out: Cell Viability (%)
  viability at 16 μg/mL: 78.4%
[11]; 32 μg/mL, read-out: Cell Viability (%)
  viability at 32 μg/mL: 71.4%
[11]; 64 μg/mL, read-out: Cell Viability (%)
  viability at 64 μg/mL: 58.1%
[11]; 128 μg/mL, read-out: Cell Viability (%)
  viability at 128 μg/mL: 19.7%
[12]
  MIC: 8 µg/mL (≈ 12.6 µM)
[13]
  MIC: 4 µg/mL (≈ 6.31 µM)
S. aureus ATCC43300 [14]
  increase of PI fluorescence intensity vs control group: approximately 5 fold

— article PMC11350758, “Development of Xanthoangelol-Derived Compounds with Membrane-Disrupting Effects against Gram-Positive Bacteria” (Antibiotics, 2024)
